Laboratory results from patent publication US20050182025A1, “Amidinylphenyl compounds and their use as fungicides” (priority 2002, published 2005).

Assays:
Format in all cases: in vivo
[1] = system: Erysiphe graminis f. sp. tritici; test: Test A: preventive spray on wheat seedlings, wheat powdery mildew, disease rating; settings: wheat seedlings sprayed to run-off, inoculated the following day with Erysiphe graminis f. sp. tritici, rated after 7 days at 20° C.; test concentration not given
Summary of the method: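 Preventive test: Erysiphe graminis f. sp. tritici spore dust applied one day after run-off spraying of seedlings with acetone/water/surfactant suspension, 200 ppm equating to 500 g/ha. Plants held 7 days at 20 °C; ratings give % disease control versus controls, 100 full, 0 none.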

Septoria nodorum = test: Test C: preventive spray on wheat seedlings, Septoria glume blotch, disease rating; settings: wheat seedlings sprayed to run-off, inoculated the following day with Septoria nodorum, 48 h saturated atmosphere then 9 days at 20° C.; test concentration not given
Summary of the method: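 Preventive test: one day after spraying (to run-off; 200 ppm ≈ 500 g/ha, in acetone/water with 250 ppm surfactant), seedlings received a S. nodorum spore suspension. After 48 h in saturated air and 9 days in a growth chamber, both at 20° C., % disease control versus controls was scored.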

Puccinia recondita = test: Test B: preventive spray on wheat seedlings, wheat leaf rust, disease rating; settings: wheat seedlings sprayed to run-off, inoculated the following day with Puccinia recondita, 24 h saturated atmosphere then 6 days at 20° C.; test concentration not given
Summary of the method: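 Preventive test: seedlings inoculated with Puccinia recondita one day after run-off spraying with test suspension (acetone/water, 250 ppm Trem 014; 200 ppm equals 500 g/ha). Rating after 24 h at 20° C in saturation plus 6 days in 20° C growth chamber; 0–100 scale versus controls.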

| SMILES | Test A disease control rating (100 = 100% disease control, 0 = no disease control relative to the controls) [1] [%] | Test C disease control rating (100 = 100% disease control, 0 = no disease control relative to the controls) (Septoria nodorum) [%] | Test B disease control rating (100 = 100% disease control, 0 = no disease control relative to the controls) (Puccinia recondita) [%] |
| --- | --- | --- | --- |
| CC[Si](C)(CC)CCCOc1cc(C)c(N=CN(C)C)cc1C [Compound 53] | 100 | 99 | 100 |
| Cc1cc(OCCCC(C)C)c(C)cc1N=CN(C)C [compound 132] | 98 | 97 | 100 |
| CCCCC(CCC)Sc1cc(C)c(N=C(C)N(C)C)cc1C (stereo not drawn) [compound 142] | 0 | 53 | 0 |
| CCN(C)C(=S)Nc1cc(Cl)c(OCCC[Si](C)(C)C)cc1C [compound 169] | 99 | 100 | 100 |
| CC(C)=CCCOc1cc(C)c(N=CN(C)C)cc1C [Compound 39] | 0 | 94 | 100 |
| Cc1cc(OCCCC(C)(C)O)c(C)cc1N=CN(C)C [Compound 45] | 0 | 0 | 80 |
| CCN(CC)C(=S)Nc1cc(Cl)c(OCCCC(C)(C)C)cc1Cl [compound 188] | 100 | 90 | 79 |
| CCN(C)C=Nc1cc(Cl)c(OCCC[Si](C)(C)CC)cc1C [compound 57] | 100 | 100 | 100 |
| CCN(CC)C(=S)Nc1cc(Cl)c(OCCCC(C)C)c(Cl)c1C [compound 117] | 29 | 60 | 37 |
| Cc1c(NC(=S)N(C)C)cc(Cl)c(OCCC[Si](C)(C)C)c1Cl [compound 180] | 75 | 0 | 58 |
| CCN(CC)C(=S)Nc1cc(C)c(OCCCC(C)C)cc1C [compound 108] | 87 | 96 | 89 |
| CCCCC(CCCC)Sc1cc(C)c(N=C(C)N(C)C)cc1C [compound 143] | 0 | 80 | 0 |
| CCN(C)C(=S)Nc1cc(C)c(OCCC[Si](C)(C)C)cc1C [compound 164] | 100 | 100 | 100 |
| Cc1cc(OCCC[Si](C)(C)C)c(C(C)C)cc1N=CN(C)C(C)C [compound 74] | 100 | 100 | 100 |
| Cc1cc(OCCCC(C)(C)C)c(C)cc1NC(=S)N(C)C [compound 192] | 99 | 100 | 100 |
| Cc1cc(OCCCC(C)(Cl)C(C)C)c(C)cc1N=CN(C)C (stereo not drawn) [Compound 46] | 97 | 97 | 100 |
| CCN(C)C(=Nc1cc(C)c(OCCC[Si](C)(C)C)cc1C)C(=O)OC [compound 131] | 67 | 96 | 100 |
| CCCCCOc1cc(C)c(N=CN(C)C)cc1C [Compound 19] | 96 | 100 | 100 |
| CCN(C)C(=S)Nc1cc(C)c(OCCC[Si](C)(CC)CC)cc1C [compound 79] | 0 | 100 | 99 |
| Cc1cc(OCCC[Si](C)(C)C)c(Cl)cc1N=CN1CCCC1 [Compound 95] | 100 | 100 | 100 |
| CCN(C)C(=S)Nc1cc(Cl)c(OCCC[Si](C)(C)CC)cc1C [compound 84] | 100 | 100 | 100 |
| CCN(C)C(=S)Nc1cc(Cl)c(OCCCC(C)(C)C)cc1Cl [compound 187] | 100 | 78 | 99 |
| Cc1cc(OCCCC(C)(C)C)c(Cl)cc1N=CN(C)C [compound 176] | 43 | 100 | 99 |
| CCCCC(CCCC)Oc1cc(C)c(N=CN(C)C)cc1C [Compound 28, N′-[4-[(1-Butylpentyl)oxy]-2,5-dimethylphenyl]-N,N-dimethylmethanimidamide] | 0 | 0 | 97 |
| CCCCC(CCC)Sc1cc(C)c(N=CN(C)C)cc1C (stereo not drawn) [compound 141] | 0 | 100 | 99 |
| CC(C)=CCCC(C)=CCOc1cc(C)c(N=CN(C)C)cc1C [Compound 2] | 95 | 36 | 100 |
